From ChEMBL document CHEMBL1201862, “PubChem BioAssay data set” (2004)
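Each compound was tested at five concentrations against cells in 96-well plates for 48 hours. At the GI50, growth is halved.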 Activity calls are given as the source filed them. Rule as the data show it: active = GI50 up to about 1.1 µM and inactive = higher.

Tests used:
Test in all cases: growth of human tumour cells (NCI), 48 h
M14 = tested on: M14
Hs-578T = tested on: Hs-578T
MCF7 = tested on: MCF7
HOP-92 = tested on: HOP-92
NCI-H460 = tested on: NCI-H460
MDA-MB-435 = tested on: MDA-MB-435
UACC-62 = tested on: UACC-62
U-251 = tested on: U-251
K562 = tested on: K562
SR = tested on: SR
RXF 393 = tested on: RXF 393
HCT-15 = tested on: HCT-15
CCRF-CEM = tested on: CCRF-CEM
HT-29 = tested on: HT-29
LOX IMVI = tested on: LOX IMVI
SF-268 = tested on: SF-268
SF-539 = tested on: SF-539
786-0 = tested on: 786-0
NCI-H23 = tested on: NCI-H23
SW-620 = tested on: SW-620
ACHN = tested on: ACHN
T47D = tested on: T47D
EKVX = tested on: EKVX
HOP-62 = tested on: HOP-62
SF-295 = tested on: SF-295
TK-10 = tested on: TK-10
BT-549 = tested on: BT-549
HCT-116 = tested on: HCT-116
A549 = tested on: A549
OVCAR-3 = tested on: OVCAR-3
MOLT-4 = tested on: MOLT-4
HL-60 = tested on: HL-60
SNB-75 = tested on: SNB-75
SK-MEL-2 = tested on: SK-MEL-2
UO-31 = tested on: UO-31
COLO 205 = tested on: COLO 205
MDA-N = tested on: MDA-N
IGROV-1 = tested on: IGROV-1
OVCAR-8 = tested on: OVCAR-8
NCI/ADR-RES = tested on: NCI/ADR-RES
OVCAR-5 = tested on: OVCAR-5
SK-MEL-28 = tested on: SK-MEL-28
NCI-H226 = tested on: NCI-H226
CAKI-1 = tested on: CAKI-1
SNB-19 = tested on: SNB-19
DU-145 = tested on: DU-145
SN12C = tested on: SN12C
SK-OV-3 = tested on: SK-OV-3
HCC 2998 = tested on: HCC 2998
UACC-257 = tested on: UACC-257
NCI-H522 = tested on: NCI-H522
PC-3 = tested on: PC-3
RPMI-8226 = tested on: RPMI-8226
KM12 = tested on: KM12
OVCAR-4 = tested on: OVCAR-4
MDA-MB-231 = tested on: MDA-MB-231
A498 = tested on: A498
Malme-3M = tested on: Malme-3M
SK-MEL-5 = tested on: SK-MEL-5

For CCCCc1c(OC)cc(O)c2c1C(=O)c1[nH]c(C(=O)O)c(O)c(=O)c1C2=O, the GI50 (M14) was 4.83 µM (inactive), the GI50 (Hs-578T) was 1.82 µM (inactive) and the GI50 (MCF7) was 21.1 µM (inactive). For the same molecule, the GI50 (HOP-92) was 3.19 µM (inactive), the GI50 (NCI-H460) was 46.8 µM (inactive) and the GI50 (MDA-MB-435) was 5.56 µM (inactive). The GI50 (UACC-62) was 2.28 µM (inactive), the GI50 (U-251) was 2.95 µM (inactive) and the GI50 (K562) was > 100 µM (inactive). For the same molecule, the GI50 (SR) was 6.93 µM (inactive), the GI50 (RXF 393) was 1.56 µM (inactive) and the GI50 (HCT-15) was 23.8 µM. For the same molecule, the GI50 (CCRF-CEM) was 42.1 µM (inactive), the GI50 (HT-29) was > 100 µM (inactive) and the GI50 (LOX IMVI) was 4.01 µM (inactive). For the same molecule, the GI50 (SF-268) was 1.95 µM (inactive), the GI50 (SF-539) was 0.499 µM (active) and the GI50 (786-0) was 1.62 µM (inactive). For the same molecule, the GI50 (NCI-H23) was 2.81 µM (inactive), the GI50 (SW-620) was 83 µM (inactive) and the GI50 (ACHN) was 2.27 µM (inactive). The GI50 (T47D) was 9.4 µM (inactive), the GI50 (EKVX) was 2.34 µM (inactive) and the GI50 (HOP-62) was 1.57 µM (inactive). The GI50 (SF-295) was 22.8 µM (inactive), the GI50 (TK-10) was 13.9 µM (inactive) and the GI50 (BT-549) was 4.47 µM (inactive). For the same molecule, the GI50 (HCT-116) was 3.37 µM (inactive), the GI50 (A549) was 77.1 µM (inactive) and the GI50 (OVCAR-3) was 0.908 µM (active). For the same molecule, the GI50 (MOLT-4) was 19.8 µM (inactive), the GI50 (HL-60) was 1.56 µM (inactive) and the GI50 (SNB-75) was 3.26 µM (inactive). For the same molecule, the GI50 (SK-MEL-2) was 1.69 µM (inactive), the GI50 (UO-31) was 1.73 µM (inactive) and the GI50 (COLO 205) was 22 µM (inactive). The GI50 (MDA-N) was 17.2 µM (inactive), the GI50 (IGROV-1) was 8.43 µM (inactive) and the GI50 (OVCAR-8) was 2.27 µM (inactive). The GI50 (NCI/ADR-RES) was 4.18 µM (inactive), the GI50 (OVCAR-5) was 4.9 µM (inactive) and the GI50 (SK-MEL-28) was 4.11 µM (inactive). The GI50 (NCI-H226) was 5.57 µM (inactive), the GI50 (CAKI-1) was 13.2 µM (inactive) and the GI50 (SNB-19) was 2.25 µM (inactive). The GI50 (DU-145) was 63.1 µM (inactive), the GI50 (SN12C) was 6.08 µM (inactive) and the GI50 (SK-OV-3) was 4.35 µM (inactive). For the same molecule, the GI50 (HCC 2998) was 19.8 µM (inactive), the GI50 (UACC-257) was 10.4 µM (inactive) and the GI50 (NCI-H522) was 2.12 µM (inactive). The GI50 (PC-3) was 6.12 µM (inactive), the GI50 (RPMI-8226) was > 100 µM (inactive) and the GI50 (KM12) was 29.4 µM (inactive). The GI50 (OVCAR-4) was 18.3 µM (inactive) and the GI50 (MDA-MB-231) was 0.847 µM (active).

In the case of COC(=O)C1=C(O)C(C(=O)OC)[C@]2(O)[C@H](C(=O)OC)[C@H]1C[C@@H](c1ccc(F)cc1)[C@H]2C(=O)OC (some centres undefined), the GI50 (M14) is reported as 10.4 µM (inactive), the GI50 (Hs-578T) is reported as 21.7 µM (inactive) and the GI50 (MCF7) is reported as 5.35 µM (inactive). The GI50 (HOP-92) was 27.3 µM (inactive), the GI50 (NCI-H460) was 17.4 µM (inactive) and the GI50 (MDA-MB-435) was 5.43 µM (inactive). For the same molecule, the GI50 (UACC-62) was 13.5 µM (inactive), the GI50 (U-251) was 15.4 µM (inactive) and the GI50 (K562) was 9.23 µM (inactive). The GI50 (SR) was 10.9 µM (inactive), the GI50 (RXF 393) was 11.2 µM (inactive) and the GI50 (HCT-15) was 12.3 µM. The GI50 (CCRF-CEM) was 6.85 µM (inactive), the GI50 (HT-29) was 16.6 µM (inactive) and the GI50 (LOX IMVI) was 18.4 µM (inactive). For the same molecule, the GI50 (SF-268) was 23.7 µM (inactive), the GI50 (SF-539) was 18.2 µM (inactive) and the GI50 (786-0) was 14.9 µM (inactive). The GI50 (NCI-H23) was 14 µM (inactive), the GI50 (SW-620) was 13.2 µM (inactive) and the GI50 (ACHN) was 15.5 µM (inactive). For the same molecule, the GI50 (T47D) was 22.6 µM (inactive), the GI50 (EKVX) was 17.3 µM (inactive) and the GI50 (A498) was 16.8 µM (inactive). The GI50 (HOP-62) was 22.6 µM (inactive), the GI50 (SF-295) was 14.2 µM (inactive) and the GI50 (TK-10) was 21.9 µM (inactive). For the same molecule, the GI50 (BT-549) was 21.4 µM (inactive), the GI50 (Malme-3M) was 12.9 µM (inactive) and the GI50 (HCT-116) was 7.19 µM (inactive). The GI50 (A549) was 19.3 µM (inactive), the GI50 (OVCAR-3) was 11.1 µM (inactive) and the GI50 (MOLT-4) was 15.2 µM (inactive). For the same molecule, the GI50 (HL-60) was 2.92 µM (inactive), the GI50 (SNB-75) was 18.1 µM (inactive) and the GI50 (SK-MEL-2) was 4.35 µM (inactive). The GI50 (UO-31) was 14.1 µM (inactive), the GI50 (COLO 205) was 14.7 µM (inactive) and the GI50 (MDA-N) was 3.87 µM (inactive). The GI50 (IGROV-1) was 18.8 µM (inactive), the GI50 (OVCAR-8) was 20.9 µM (inactive) and the GI50 (NCI/ADR-RES) was 4.98 µM (inactive). For the same molecule, the GI50 (OVCAR-5) was 17.7 µM (inactive), the GI50 (SK-MEL-28) was 14.2 µM (inactive) and the GI50 (NCI-H226) was 17.3 µM (inactive). The GI50 (CAKI-1) was 19.1 µM (inactive), the GI50 (SNB-19) was 19.1 µM (inactive) and the GI50 (DU-145) was 14.8 µM (inactive). The GI50 (SN12C) was 3.63 µM (inactive), the GI50 (SK-OV-3) was 22.6 µM (inactive) and the GI50 (HCC 2998) was 14.6 µM (inactive). For the same molecule, the GI50 (UACC-257) was 11.9 µM (inactive), the GI50 (SK-MEL-5) was 12.3 µM (inactive) and the GI50 (PC-3) was 12.2 µM (inactive). For the same molecule, the GI50 (RPMI-8226) was 16.2 µM (inactive), the GI50 (KM12) was 18.1 µM (inactive) and the GI50 (OVCAR-4) was 22.4 µM (inactive). For the same molecule, the GI50 (MDA-MB-231) was 30.1 µM (inactive).
